One test addresses Rho kinase 2 (ROCK-II) (Homo sapiens, UniProt O75116). Put plainly: In vitro Rho kinase inhibitory activity assay (ADP-Glo), Rho kinase 2. The test is classed as biochemical. The conditions noted are these: 10 μM ATP, 25° C., expressed as range of activity. As to the method:
(§1) The effectiveness of compounds of the present invention to inhibit Rho kinase activity can be determined in a 10 μl assay containing 40 mM Tris pH7.5, 20 mM MgCl2 0.1 mg/ml BSA, 50 μM DTT and 2.5 μM peptide substrate (Myelin Basic Protein) using an ADP-Glo kit (Promega). Compounds were dissolved in DMSO such that the final concentration of DMSO was 1% in the assay. All reactions/incubations are performed at 25° C. Compound (2 ul) and either Rho kinase 1 or 2 (4 μl) were mixed and incubated for 30 mins. Reactions were initiated by addition of ATP (4 μl) such that the final concentration of ATP in the assay was 10 μM. After a 1 hour incubation 10 μl of ADP-Glo Reagent was added and after a further 45 minute incubation 20 ul of Kinase Detection Buffer was added and the mixture incubated for a further 30 minutes. The luminescent signal was measured on a luminometer. […] Compounds were tested in dose-response format and the inhibition of kinase activity was calculated at each concentration of compound. To determine the IC50 (concentration of compound required to inhibit 50% of the enzyme activity) data were fit to a plot of % inhibition vs Log10 compound concentration using a sigmoidal fit with a variable slope and fixing the maximum to 100% and the minimum to 0%. To determine the Ki values the Cheng-Prusoff equation was utilized (Ki=IC50/(1+[S]/Km).
Background: ADP-Glo first removes unused ATP, then detects ADP through luciferase.

The target in the next test is Rho kinase 1 (ROCK-I) (Homo sapiens, UniProt Q13464). As to the kind of experiment: In vitro Rho kinase inhibitory activity assay (ADP-Glo), Rho kinase 1. The following applies: 10 μM ATP, 25° C., expressed as range of activity. The format is biochemical. As to the method:
as §1

The text below walks through data of US10501461B2, “Tyrosine amide derivatives as Rho-kinase inhibitors” (CHIESI FARMACEUTICI S.P.A., priority 2017, dated 2019).

A word on the Ki: it is the dissociation constant of the complex between target and ligand, obtained from inhibition or displacement. A higher Ki goes with weaker binding.

Chain of Rho kinase 2 (ROCK-II) (O75116 whole entry): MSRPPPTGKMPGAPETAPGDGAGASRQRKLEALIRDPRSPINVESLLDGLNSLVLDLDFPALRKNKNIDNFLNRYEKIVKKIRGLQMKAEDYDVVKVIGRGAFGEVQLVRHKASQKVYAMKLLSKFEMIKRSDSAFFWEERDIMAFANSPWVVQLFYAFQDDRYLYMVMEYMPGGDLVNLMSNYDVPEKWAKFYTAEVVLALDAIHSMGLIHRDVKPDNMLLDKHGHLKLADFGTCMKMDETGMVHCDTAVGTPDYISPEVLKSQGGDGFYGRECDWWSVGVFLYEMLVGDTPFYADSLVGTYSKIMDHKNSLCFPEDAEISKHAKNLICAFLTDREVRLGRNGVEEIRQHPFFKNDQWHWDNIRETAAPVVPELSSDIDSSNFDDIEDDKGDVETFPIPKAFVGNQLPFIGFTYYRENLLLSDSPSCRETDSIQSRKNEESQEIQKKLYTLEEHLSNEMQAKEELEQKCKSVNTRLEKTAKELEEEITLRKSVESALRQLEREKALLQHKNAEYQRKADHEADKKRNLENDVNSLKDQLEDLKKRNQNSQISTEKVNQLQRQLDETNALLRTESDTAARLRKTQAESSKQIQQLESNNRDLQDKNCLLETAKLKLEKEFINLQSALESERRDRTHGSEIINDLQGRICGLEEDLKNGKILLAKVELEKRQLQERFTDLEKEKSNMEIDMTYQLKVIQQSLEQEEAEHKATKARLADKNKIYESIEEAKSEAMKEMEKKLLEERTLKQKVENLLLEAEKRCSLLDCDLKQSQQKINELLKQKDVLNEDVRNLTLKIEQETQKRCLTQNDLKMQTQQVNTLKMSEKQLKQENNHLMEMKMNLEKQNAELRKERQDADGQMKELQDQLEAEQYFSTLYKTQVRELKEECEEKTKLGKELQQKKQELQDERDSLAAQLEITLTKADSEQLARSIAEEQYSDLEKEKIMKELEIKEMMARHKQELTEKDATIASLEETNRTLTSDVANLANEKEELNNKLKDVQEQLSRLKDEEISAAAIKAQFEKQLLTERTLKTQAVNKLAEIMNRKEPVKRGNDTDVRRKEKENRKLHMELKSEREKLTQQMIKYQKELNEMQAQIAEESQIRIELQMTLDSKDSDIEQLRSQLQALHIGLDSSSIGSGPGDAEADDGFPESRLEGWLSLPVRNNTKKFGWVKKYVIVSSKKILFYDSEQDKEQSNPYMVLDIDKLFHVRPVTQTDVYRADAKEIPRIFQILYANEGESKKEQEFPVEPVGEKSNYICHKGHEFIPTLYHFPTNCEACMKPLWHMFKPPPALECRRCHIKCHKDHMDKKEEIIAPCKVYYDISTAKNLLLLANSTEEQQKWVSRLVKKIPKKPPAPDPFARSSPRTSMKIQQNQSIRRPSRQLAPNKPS
Chain of Rho kinase 1 (ROCK-I) (Q13464 whole entry): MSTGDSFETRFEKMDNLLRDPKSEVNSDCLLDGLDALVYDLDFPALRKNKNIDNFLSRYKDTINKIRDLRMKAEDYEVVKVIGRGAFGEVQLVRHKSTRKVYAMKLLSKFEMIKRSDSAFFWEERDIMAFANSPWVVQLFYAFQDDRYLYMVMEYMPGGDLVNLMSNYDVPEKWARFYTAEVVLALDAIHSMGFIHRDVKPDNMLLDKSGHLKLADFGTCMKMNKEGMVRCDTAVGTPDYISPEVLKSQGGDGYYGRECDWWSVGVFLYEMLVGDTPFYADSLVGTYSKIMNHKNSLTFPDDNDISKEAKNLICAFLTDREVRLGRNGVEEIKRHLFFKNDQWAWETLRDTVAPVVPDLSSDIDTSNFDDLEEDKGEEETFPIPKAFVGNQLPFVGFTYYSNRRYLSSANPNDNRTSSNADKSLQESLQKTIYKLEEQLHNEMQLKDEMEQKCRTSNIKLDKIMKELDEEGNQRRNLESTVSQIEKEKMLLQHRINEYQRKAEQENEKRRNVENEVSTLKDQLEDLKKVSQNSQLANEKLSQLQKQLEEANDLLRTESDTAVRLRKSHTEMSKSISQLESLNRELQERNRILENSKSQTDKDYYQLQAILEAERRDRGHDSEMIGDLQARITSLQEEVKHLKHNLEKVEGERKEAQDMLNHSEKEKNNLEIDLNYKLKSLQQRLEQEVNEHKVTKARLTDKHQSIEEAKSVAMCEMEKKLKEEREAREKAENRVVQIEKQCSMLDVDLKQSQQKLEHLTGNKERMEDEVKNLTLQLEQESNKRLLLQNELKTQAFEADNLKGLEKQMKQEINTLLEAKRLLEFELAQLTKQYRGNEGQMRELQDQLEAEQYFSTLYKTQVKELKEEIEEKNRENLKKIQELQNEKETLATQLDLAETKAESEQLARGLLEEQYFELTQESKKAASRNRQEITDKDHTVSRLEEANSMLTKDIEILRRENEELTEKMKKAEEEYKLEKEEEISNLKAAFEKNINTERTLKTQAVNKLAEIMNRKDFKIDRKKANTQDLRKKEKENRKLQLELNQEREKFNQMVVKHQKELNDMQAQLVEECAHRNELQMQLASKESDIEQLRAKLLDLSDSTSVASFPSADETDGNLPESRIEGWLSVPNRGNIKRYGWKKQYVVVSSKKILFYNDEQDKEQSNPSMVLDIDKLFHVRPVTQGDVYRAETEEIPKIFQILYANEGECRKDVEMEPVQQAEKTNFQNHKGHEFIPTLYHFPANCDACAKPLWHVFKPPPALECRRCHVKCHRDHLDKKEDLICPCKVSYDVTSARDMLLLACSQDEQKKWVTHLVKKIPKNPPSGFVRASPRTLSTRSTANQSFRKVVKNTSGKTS

On to `Cc1c[nH]c2nccc(Oc3ccc(C[C@H](N)C(=O)N4CCC(c5ccncc5)CC4)cc3F)c12` [Example 12, (S)-2-amino-3-(3-fluoro-4-((3-methyl-1H-pyrrolo[2,3-b]pyridin-4-yl)oxy)phenyl)-1-(4-(pyridin-4-yl)piperidin-1-yl)propan-1-one], for which the inhibition constant (Ki) at Rho kinase 2 (ROCK-II) and at Rho kinase 1 (ROCK-I) was below 3 nM each time.

Regarding `Cc1c[nH]c2nccc(Oc3ccc(C[C@H](N)C(=O)N4CCN(Cc5cnc6ccccc6n5)CC4)cc3F)c12` [Example 159, (S)-2-amino-3-(3-fluoro-4-((3-methyl-1H-pyrrolo[2,3-b]pyridin-4-yl)oxy)phenyl)-1-(4-(quinoxalin-2-ylmethyl)piperazin-1-yl)propan-1-one], the Ki on Rho kinase 2 (ROCK-II) and at Rho kinase 1 (ROCK-I) was below 3 nM in each case.

As to `Cc1c[nH]c2ncnc(Oc3ccc(C[C@H](N)C(=O)N4CCc5ccccc5C4)cc3F)c12` [Example 124, (S)-2-amino-1-(3,4-dihydroisoquinolin-2(1H)-yl)-3-(3-fluoro-4-((5-methyl-7H-pyrrolo[2,3-d]pyrimidin-4-yl)oxy)phenyl)propan-1-one], the Ki on Rho kinase 2 (ROCK-II) and at Rho kinase 1 (ROCK-I) was below 3 nM each time.

Regarding `Cc1c[nH]c2nccc(Oc3ccc(C[C@H](N)C(=O)Nc4ccccc4)cc3F)c12` [Example 145, (S)-2-amino-3-(3-fluoro-4-((3-methyl-1H-pyrrolo[2,3-b]pyridin-4-yl)oxy)phenyl)-N-phenylpropanamide], the Ki on Rho kinase 2 (ROCK-II) and at Rho kinase 1 (ROCK-I) was below 3 nM throughout.

As to `N[C@@H](Cc1ccc(Oc2ccnc3[nH]cc(C4=CCNC4)c23)cc1)C(=O)N1CCN(Cc2ccccc2)CC1` [Example 202, (S)-2-amino-1-(4-benzylpiperazin-1-yl)-3-(4-((3-(2,5-dihydro-1H-pyrrol-3-yl)-1H-pyrrolo[2,3-b]pyridin-4-yl)oxy)phenyl)propan-1-one], the Ki on Rho kinase 2 (ROCK-II) and on Rho kinase 1 (ROCK-I) was 3 to 30 nM in each case.

Regarding `NC(Cc1ccc(Oc2ccnc3[nH]ccc23)cc1)C(=O)Nc1ccc(C(F)(F)F)cc1` (single isomer, unassigned) [Example 91B, 3-(4-((1H-pyrrolo[2,3-b]pyridin-4-yl)oxy)phenyl)-2-amino-N-(4-(trifluoromethyl)phenyl)propanamide], the Ki at Rho kinase 2 (ROCK-II) and at Rho kinase 1 (ROCK-I) was 3 to 30 nM in each case.

As to `N#Cc1c[nH]c2ncnc(Oc3ccc(C[C@H](N)C(=O)N4CCN(Cc5ccccc5)CC4)cc3F)c12` [Example 130, (S)-4-(4-(2-amino-3-(4-benzylpiperazin-1-yl)-3-oxopropyl)-2-fluorophenoxy)-7H-pyrrolo[2,3-d]pyrimidine-5-carbonitrile], the Ki at Rho kinase 2 (ROCK-II) and on Rho kinase 1 (ROCK-I) was below 3 nM throughout.

For the compound `CN1CCC(NC(=O)[C@@H](N)Cc2ccc(Oc3ccnc4[nH]ccc34)cc2)CC1` [Example 103, (S)-3-(4-((1H-pyrrolo[2,3-b]pyridin-4-yl)oxy)phenyl)-2-amino-N-(1-methylpiperidin-4-yl)propanamide], the Ki at Rho kinase 2 (ROCK-II) and at Rho kinase 1 (ROCK-I) was 3 to 30 nM throughout.

On to `N[C@@H](Cc1ccc(Oc2ccnc3[nH]ccc23)cc1)C(=O)Nc1ccccc1` [Example 109, (S)-3-(4-((1H-pyrrolo[2,3-b]pyridin-4-yl)oxy)phenyl)-2-amino-N-phenylpropanamide], for which the Ki at Rho kinase 2 (ROCK-II) and on Rho kinase 1 (ROCK-I) was 3 to 30 nM each time.

Consider `Cc1c[nH]c2nccc(Oc3ccc(CC(N)C(=O)NC4Cc5ccccc5C4)cc3F)c12` (centres unmarked) [Example 63, 2-amino-N-(2,3-dihydro-1H-inden-2-yl)-3-(3-fluoro-4-((3-methyl-1H-pyrrolo[2,3-b]pyridin-4-yl)oxy)phenyl)propanamide], for which the Ki at Rho kinase 2 (ROCK-II) and at Rho kinase 1 (ROCK-I) was below 3 nM in each case.

Take `N[C@@H](Cc1ccc(Oc2ccnc3[nH]cc(-c4ccccc4)c23)cc1)C(=O)N1CCN(Cc2ccccc2)CC1` [Example 199, (S)-2-amino-1-(4-benzylpiperazin-1-yl)-3-(4-((3-phenyl-1H-pyrrolo[2,3-b]pyridin-4-yl)oxy)phenyl)propan-1-one]: the Ki at Rho kinase 2 (ROCK-II) and at Rho kinase 1 (ROCK-I) was below 3 nM throughout.

On to `Cc1c[nH]c2ncnc(Oc3ccc(C[C@H](N)C(=O)N4CCC(c5ccncc5)CC4)cc3F)c12` [Example 122, (S)-2-amino-3-(3-fluoro-4-((5-methyl-7H-pyrrolo[2,3-d]pyrimidin-4-yl)oxy)phenyl)-1-(4-(pyridin-4-yl)piperidin-1-yl)propan-1-one], for which the Ki on Rho kinase 2 (ROCK-II) is below 3 nM; at Rho kinase 1 (ROCK-I) it was 3 to 30 nM.

With `Cc1c[nH]c2nccc(Oc3ccc(CC(N)C(=O)NCc4ccc(CO)cc4)cc3F)c12` (centres unmarked) [Example 62, 2-amino-3-(3-fluoro-4-((3-methyl-1H-pyrrolo[2,3-b]pyridin-4-yl)oxy)phenyl)-N-(4-(hydroxymethyl)benzyl)propanamide], the Ki on Rho kinase 2 (ROCK-II) and on Rho kinase 1 (ROCK-I) was below 3 nM throughout.

In the case of `Cc1c[nH]c2nccc(Oc3ccc(CC(N)C(=O)NCc4cccs4)cc3F)c12` (centres unmarked) [Example 61, 2-amino-3-(3-fluoro-4-((3-methyl-1H-pyrrolo[2,3-b]pyridin-4-yl)oxy)phenyl)-N-(thiophen-2-ylmethyl)propanamide], the Ki at Rho kinase 2 (ROCK-II) and at Rho kinase 1 (ROCK-I) was below 3 nM each time.

Take `Cc1c[nH]c2nccc(Oc3ccc(C[C@@H](N)C(=O)NC4CCCCC4)cc3)c12` [Example 142, (R)-2-amino-N-cyclohexyl-3-(4-((3-methyl-1H-pyrrolo[2,3-b]pyridin-4-yl)oxy)phenyl)propanamide]: the Ki on Rho kinase 2 (ROCK-II) and at Rho kinase 1 (ROCK-I) was 3 to 30 nM each time.

For `Cc1c[nH]c2ncnc(Oc3ccc(C[C@H](N)C(=O)N4CCN(C5CC5)CC4)cc3F)c12` [Example 119, (S)-2-amino-1-(4-cyclopropylpiperazin-1-yl)-3-(3-fluoro-4-((5-methyl-7H-pyrrolo[2,3-d]pyrimidin-4-yl)oxy)phenyl)propan-1-one], the Ki at Rho kinase 2 (ROCK-II) and at Rho kinase 1 (ROCK-I) was below 3 nM in each case.

In the case of `Cc1c[nH]c2nccc(Oc3ccc(C[C@H](N)C(=O)N4C[C@@H](C)N(Cc5ccccc5)[C@@H](C)C4)cc3F)c12` [Example 26, (S)-2-amino-1-((3S,5R)-4-benzyl-3,5-dimethylpiperazin-1-yl)-3-(3-fluoro-4-((3-methyl-1H-pyrrolo[2,3-b]pyridin-4-yl)oxy)phenyl)propan-1-one], the Ki at Rho kinase 2 (ROCK-II) and at Rho kinase 1 (ROCK-I) was below 3 nM throughout.

Regarding `Cc1c[nH]c2nccc(Oc3ccc(CC(N)C(=O)N4CCN(Cc5ccncc5)CC4)cc3F)c12` (centres unmarked) [Example 51, 2-amino-3-(3-fluoro-4-((3-methyl-1H-pyrrolo[2,3-b]pyridin-4-yl)oxy)phenyl)-1-(4-(pyridin-4-ylmethyl)piperazin-1-yl)propan-1-one], the Ki at Rho kinase 2 (ROCK-II) and at Rho kinase 1 (ROCK-I) was below 3 nM in each case.

As to `Cc1c[nH]c2nccc(Oc3ccc(CC(N)C(=O)N4CCCC4c4ccccc4)cc3F)c12` (single isomer, unassigned) [Example 84, 2-amino-3-(3-fluoro-4-((3-methyl-1H-pyrrolo[2,3-b]pyridin-4-yl)oxy)phenyl)-1-(2-phenylpyrrolidin-1-yl)propan-1-one], the Ki at Rho kinase 2 (ROCK-II) and on Rho kinase 1 (ROCK-I) was 3 to 30 nM each time.

With `N[C@@H](Cc1ccc(Oc2ccnc3[nH]cc(-c4cncs4)c23)cc1)C(=O)N1CCN(Cc2ccccc2)CC1` [Example 196, (S)-2-amino-1-(4-benzylpiperazin-1-yl)-3-(4-((3-(thiazol-5-yl)-1H-pyrrolo[2,3-b]pyridin-4-yl)oxy)phenyl)propan-1-one], the Ki on Rho kinase 2 (ROCK-II) and at Rho kinase 1 (ROCK-I) was below 3 nM throughout.

Turning to `Cc1c[nH]c2nccc(Oc3ccc(CC(N)C(=O)Nc4cccc5cnccc45)cc3F)c12` (centres unmarked) [Example 78, 2-amino-3-(3-fluoro-4-((3-methyl-1H-pyrrolo[2,3-b]pyridin-4-yl)oxy)phenyl)-N-(isoquinolin-5-yl)propanamide], the inhibition constant (Ki) at Rho kinase 2 (ROCK-II) and on Rho kinase 1 (ROCK-I) was below 3 nM each time.

As for `N[C@@H](Cc1ccc(Oc2ccnc3[nH]cc(-c4cnoc4)c23)cc1)C(=O)N1CCN(Cc2ccccc2)CC1` [Example 198, (S)-2-amino-1-(4-benzylpiperazin-1-yl)-3-(4-((3-(isoxazol-4-yl)-1H-pyrrolo[2,3-b]pyridin-4-yl)oxy)phenyl)propan-1-one], the inhibitory constant (Ki) at Rho kinase 2 (ROCK-II) and at Rho kinase 1 (ROCK-I) was below 3 nM in each case.

With `Cc1c[nH]c2nccc(Oc3ccc(C[C@H](N)C(=O)NC4CN(C)C4)cc3F)c12` [Example 42, (S)-2-amino-3-(3-fluoro-4-((3-methyl-1H-pyrrolo[2,3-b]pyridin-4-yl)oxy)phenyl)-N-(1-methylazetidin-3-yl)propanamide], the Ki at Rho kinase 2 (ROCK-II) and on Rho kinase 1 (ROCK-I) was below 3 nM each time.

For the compound `CN(C)C(Cc1ccc(Oc2ccnc3[nH]ccc23)cc1)C(=O)NC1CCCCC1` (centres unmarked) [Example 183, 3-(4-((1H-pyrrolo[2,3-b]pyridin-4-yl)oxy)phenyl)-N-cyclohexyl-2-(dimethylamino)propanamide], the Ki on Rho kinase 2 (ROCK-II) was 3 to 30 nM; at Rho kinase 1 (ROCK-I), above 30 nM.

For `Cc1c[nH]c2nccc(Oc3ccc(CC(N)C(=O)N4Cc5ccncc5C4)cc3F)c12` (centres unmarked) [Example 65, 2-amino-3-(3-fluoro-4-((3-methyl-1H-pyrrolo[2,3-b]pyridin-4-yl)oxy)phenyl)-1-(1H-pyrrolo[3,4-c]pyridin-2(3H)-yl)propan-1-one], the Ki on Rho kinase 2 (ROCK-II) and on Rho kinase 1 (ROCK-I) was below 3 nM throughout.
